# According to patent US9708638B1, “Protease assay method using site-specific fluorescence dye labeled protein as substrate” (EZBiolab, priority 2014, dated 2017):
# What was measured:
# Type in all cases: biochemical
# BACE = target: T1, BACE (Homo sapiens, UniProt P56817); assay: Fluorescence polarization assay of cleavage of APP365-699-[5-TAMRA] by BACE; settings: inhibitor included in the cleavage reaction; FIG. 10 Trace B
# T1 construct: made in house; host or cells: E. coli
# From the text: Referring to FIGS. 9-11, in this example Beta-secretase (BACE) is one of the two proteases that cleave amyloid precursor protein (APP) to produce amyloid peptide 1-42. Human APP is a 733 residue protein. Full length of APP is consisted of several domains. BACE cleaves APP between residue 671 and 672. In this example, a fluorescence dye is specifically conjugated to the C-terminal end of APP365-699 that contains two independent folded domains. Gene encoding APP365-699 is fused to the N-terminal end of intein. After MESNA mediated self cleavage between APP365-699 and intein, a thioester group, is added to the C-terminal end of APP365-699. A fluorescence dye conjugated small peptide, CysGlySerLys-[5-TAMRA], is then ligated to the C-terminal end of APP365-699 to produce fluorescent dye labeled APP365-699:
# As a result, fluorescence polarization of 5-TAMRA reduces. […] It proves that APP365-699-[5-TAMRA] may be used as a substrate for BACE activity assay by recording the fluorescence polarization. […] Thus, APP365-699-[5-TAMRA] may be used as a substrate for BACE activity assay by recording the fluorescence polarization and the assay may be used to identify its inhibitors.
# ADAM 17 [1] = assay: Fluorescence polarization assay of cleavage of N-terminal FITC labeled pro-TNF-α by Adam 17; settings: inhibitor at final concentration 10 uM; FIG. 3 Trace B
# Experimental: (§1) Cleavage of N-terminal FITC labeled pro-TNF-α was performed by a fluorescence polarization assay. The assay was performed with a SpectraMax fluorescence plate reader in 96-well format. In a typical assay, 1 μM substrate protein was preincubated at 37° C. for 20 minutes. The reaction was initiated by addition of Adam 17 to the substrate solution. The final concentration of Adam 17 was 48 nM. The total reaction volume was […]. The reaction buffer was 50 mM Tris-HCl, pH 7.5, 2.5 μM ZnCl2, 0.005% Brij-35. In inhibition assays, the inhibitor was preincubated with its target protein for 30 minutes before reaction was initiated.
# (§2) The concentration of product was calculated according to equation (1): [P]=(F[S]−Fs[S])/(Fp−Fs); where [P] is the concentration of product, F is the experimental recorded fluorescence polarization value, [S] is the total concentration of substrate and Fs and Fp are fluorescence polarization values of substrate and product, respectively. Fp is determined from a synthetic peptide with an identical sequence to the N-terminal fragment of the cleavage products.
# (§3) To initiate the cleavage reaction, 1 ul ADAM 17 (0.1 mg/ml) stock solution may be added to 100 ul FITC-[pro-TNF-α] in 20 mM Tris-HCL, PH 8.5. The final concentration of FITC-[pro-TNF-α] is about 1 uM.
# ADAM 17 [2] = target: ADAM 17 (Homo sapiens, UniProt P01375); assay: as above
# Chain of ADAM 17 (Homo sapiens, UniProt P01375) (P01375 with tags, fused parts or gaps): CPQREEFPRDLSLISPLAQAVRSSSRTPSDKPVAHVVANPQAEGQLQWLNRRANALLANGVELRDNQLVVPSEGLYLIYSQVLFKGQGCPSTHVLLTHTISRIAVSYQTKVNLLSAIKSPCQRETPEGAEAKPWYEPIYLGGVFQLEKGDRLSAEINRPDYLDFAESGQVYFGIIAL
# Experimental: as §1, §2, §3
# ADAM 17 [3] = target: ADAM 17 (Homo sapiens, UniProt P78536); assay: Cleavage of peptide substrate by Adam 17 (HPLC); settings: HPLC results
# Chain of ADAM 17 (Homo sapiens, UniProt P78536) (P78536 215-824): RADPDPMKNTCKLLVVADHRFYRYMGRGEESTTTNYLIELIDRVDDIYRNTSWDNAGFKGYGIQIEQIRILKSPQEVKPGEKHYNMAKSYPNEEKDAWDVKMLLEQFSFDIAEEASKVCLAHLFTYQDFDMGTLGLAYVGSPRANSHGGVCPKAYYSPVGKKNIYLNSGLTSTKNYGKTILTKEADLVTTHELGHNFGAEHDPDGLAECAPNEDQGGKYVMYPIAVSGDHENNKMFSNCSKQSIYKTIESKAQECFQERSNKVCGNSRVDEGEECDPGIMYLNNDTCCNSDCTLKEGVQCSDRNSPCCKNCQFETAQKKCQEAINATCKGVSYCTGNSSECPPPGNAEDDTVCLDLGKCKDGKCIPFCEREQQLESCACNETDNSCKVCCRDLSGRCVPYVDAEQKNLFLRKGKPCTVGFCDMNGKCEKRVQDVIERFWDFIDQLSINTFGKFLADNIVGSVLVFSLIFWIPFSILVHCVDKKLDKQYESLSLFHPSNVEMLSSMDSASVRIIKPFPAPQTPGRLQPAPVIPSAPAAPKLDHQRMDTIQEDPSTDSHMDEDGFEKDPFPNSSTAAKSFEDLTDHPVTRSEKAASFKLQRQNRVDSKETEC
# Experimental: Cleavage of peptide substrates: Two peptide substrates were used in this study. PS1 is Mca-PLAQAV-Dpa-RSSSR-NH2 (22), a fluorescence resonance energy transfer based substrate, the activity was measured by fluorescence intensity change upon cleavage. PS2 may be the non-fluorescence version of PS1. For PS1, in a typical assay, 10 μM substrate was preincubated at 37° C. for 20 minutes. The reaction was initiated by addition of Adam 17 to the substrate solution at the final concentration of 16 nM. The total reaction volume may be 100 μl. The reaction buffer may be 50 mM Tris-HCl, pH 9.0, 2.5 μM ZnCl2, 0.005% Brij-35. In inhibition assays, inhibitor was preincubated with peptide substrate for 30 minutes. For PS2, reaction conditions were identical to PS1.
# Referring to FIGS. 13 and 14, TNF-α Inhibitor is a small molecule that blocks interaction of TNF-α with its receptor by binding to TNF-α. This compound may affect the activity of Adam 17 to convert pro-TNF-α to TNF-α. Referring to FIG. 13, it is shown that at a concentration of about 200 μM, TNF-α inhibitor reduces the reaction rate by about 40%, which is validated by the electrophoresis assay results shown in FIG. 14. […] Based on the established direct binding between the compound and TNFα, it is believed that the inhibition effect is caused by the interaction of the compound to pro-TNFα.
# Renin = target: T2, Renin (Homo sapiens, UniProt P00797); assay: Fluorescence polarization assay of cleavage of FITC-angiotensinogen by Renin; settings: inhibitor at final concentration 10 uM
# T2 sequence (P00797 67-406): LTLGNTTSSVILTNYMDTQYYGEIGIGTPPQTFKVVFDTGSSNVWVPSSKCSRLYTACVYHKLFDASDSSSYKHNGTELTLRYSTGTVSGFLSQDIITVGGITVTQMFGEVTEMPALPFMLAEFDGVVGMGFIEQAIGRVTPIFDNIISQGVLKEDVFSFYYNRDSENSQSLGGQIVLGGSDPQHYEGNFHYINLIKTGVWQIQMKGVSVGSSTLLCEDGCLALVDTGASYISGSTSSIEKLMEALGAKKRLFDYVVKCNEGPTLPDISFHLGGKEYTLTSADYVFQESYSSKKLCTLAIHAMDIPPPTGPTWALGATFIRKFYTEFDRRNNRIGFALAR
# Experimental: Cleavage of FITC-angiotensinogen by Renin produces two products: FITC-AAGCDRVYIHPFHL (FITC-angiotensin) and angiotensinogen protein. To initiate the cleavage reaction, 1 ul Renin (0.1 mg/ml) stock solution may be added to 100 ul FITC-angiotensinogen in 20 mM Tris-HCL, PH 8.5. The final concentration of FITC-angiotensingen may be about 1 uM. […] This confirms the specific cleavage of FITC-angiotensinogen by Renin.
# An alternative strategy to label the full length angtensinogen is to delete 16 residues from the N-terminus of angtensinogen. This shorted angtensinogen has a Cys at its N-terminal end and is fused to sumo. Using the same protocol as described above, this fusion protein is expressed, purified and cleaved by Sumo protease to produce the N-terminal 16 residue deleted angtensinogen. Referring to FIG. 7, ligation of the N-terminal 16 residue deleted angtensinogen to the FITC-DRVYIHPFHLVIHNEST-thioester, a slightly different version of FITC-angiotensinogen is produced. […] Cleavage of this FITC-angiotensinogen by Renin may be measured by recording fluorescence polarization signal as a function of time, as shown in FIG. 8. […] This proves that the FITC-angiotensinogen may be used as a substrate for Renin activity assay by recording the fluorescence polarization and the assay may be used to identify its inhibitors.
# T1 sequence (P56817 46-501): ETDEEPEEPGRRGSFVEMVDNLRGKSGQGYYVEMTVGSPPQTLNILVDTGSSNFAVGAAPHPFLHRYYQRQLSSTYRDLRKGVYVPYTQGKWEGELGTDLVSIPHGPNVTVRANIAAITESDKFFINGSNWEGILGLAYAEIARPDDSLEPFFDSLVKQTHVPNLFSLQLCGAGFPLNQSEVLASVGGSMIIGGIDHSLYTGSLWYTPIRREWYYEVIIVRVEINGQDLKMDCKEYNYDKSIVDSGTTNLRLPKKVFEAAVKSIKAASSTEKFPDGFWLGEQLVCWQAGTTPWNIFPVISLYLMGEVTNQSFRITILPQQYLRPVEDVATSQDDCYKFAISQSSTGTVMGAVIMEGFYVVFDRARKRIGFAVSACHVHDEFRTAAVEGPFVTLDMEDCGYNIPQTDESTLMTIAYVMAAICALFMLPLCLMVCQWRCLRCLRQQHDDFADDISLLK
molecule,measurement,setting,value
KTEEISEVN-Sta-VAEF,fluorescence polarization during cleavage of APP365-699-[5-TAMRA] by BACE,BACE,remains unchanged
CNC(=O)[C@H](Cc1c[nH]c2ccccc12)NC(=O)[C@@H](CC(=O)NO)CC(C)C [N-[(2R)-2-(Hydroxamidocarbonylmethyl)-4-methylpentanoyl]-L-tryptophan methylamide],fluorescence polarization change during cleavage of FITC-[pro-TNF-α] by ADAM 17,ADAM 17 [1],little change
"Cc1cc2occ(CN(C)CCN(C)Cc3cn(-c4cccc(C(F)(F)F)c4)c4ccccc34)c(=O)c2cc1C [TNF-α inhibitor, 6,7-Dimethyl-3-((methyl-(2-(methyl-(1-(3-trifluoromethyl-phenyl)-1H-indol-3-ylmethyl)-amino)-ethyl)-amino)-methyl)-chromen-4-one]",cleavage rate of FITC-(pro-TNF-α) by ADAM 17,ADAM 17 [2]; 200 uM compound pre-incubated with FITC-(pro-TNF-α) for 30 minutes,reduced
same,reduction of the reaction rate (conversion of pro-TNF-α to TNF-α by Adam 17),"ADAM 17 [2]; inhibitor at about 200 μM, FIG. 13",about 40%
same,cleavage activity of Adam 17 to the peptide substrate,ADAM 17 [3],not affected
RRPFH-Sta-IHK,fluorescence polarization change during cleavage of FITC-angiotensinogen by Renin,"Renin; FITC-angiotensinogen made from N-terminal 16 residue deleted angiotensinogen, FIG. 8 Trace B",little change
same,fluorescence polarization change during cleavage of FITC-angiotensinogen by Renin,"Renin; full length FITC-angiotensinogen, FIG. 6 Trace B",little change
